Tests used:
[1] = target: MAP kinase-activated protein kinase 2 (Homo sapiens, UniProt P49137); experiment: Selectivity interaction (Millipore kinase profiler) EUB0000124b MAPKAPK2; conditions: at 10 µM
[2] = target: Tyrosine-protein kinase Lyn (Homo sapiens, UniProt P07948); experiment: Selectivity interaction (Kinase screening (Upstate/Millipore)) EUB0000604a LYN
[3] = target: Mitogen-activated protein kinase kinase kinase 1 (Homo sapiens, UniProt Q13233); experiment: Selectivity interaction (KinomeScan (DiscoverX)) EUB0001049a MAP3K1; conditions: at 1 µM
[4] = target: T1, Ephrin type-A receptor 6 (Homo sapiens) (UniProt Q9UF33); experiment: Selectivity interaction (Ambit KINOMEscan and KiNATiv profiling in Jurkat cells) EUB0000090b EPHA6; format: cell-based; conditions: at 1 µM
T1 sequence (whole entry): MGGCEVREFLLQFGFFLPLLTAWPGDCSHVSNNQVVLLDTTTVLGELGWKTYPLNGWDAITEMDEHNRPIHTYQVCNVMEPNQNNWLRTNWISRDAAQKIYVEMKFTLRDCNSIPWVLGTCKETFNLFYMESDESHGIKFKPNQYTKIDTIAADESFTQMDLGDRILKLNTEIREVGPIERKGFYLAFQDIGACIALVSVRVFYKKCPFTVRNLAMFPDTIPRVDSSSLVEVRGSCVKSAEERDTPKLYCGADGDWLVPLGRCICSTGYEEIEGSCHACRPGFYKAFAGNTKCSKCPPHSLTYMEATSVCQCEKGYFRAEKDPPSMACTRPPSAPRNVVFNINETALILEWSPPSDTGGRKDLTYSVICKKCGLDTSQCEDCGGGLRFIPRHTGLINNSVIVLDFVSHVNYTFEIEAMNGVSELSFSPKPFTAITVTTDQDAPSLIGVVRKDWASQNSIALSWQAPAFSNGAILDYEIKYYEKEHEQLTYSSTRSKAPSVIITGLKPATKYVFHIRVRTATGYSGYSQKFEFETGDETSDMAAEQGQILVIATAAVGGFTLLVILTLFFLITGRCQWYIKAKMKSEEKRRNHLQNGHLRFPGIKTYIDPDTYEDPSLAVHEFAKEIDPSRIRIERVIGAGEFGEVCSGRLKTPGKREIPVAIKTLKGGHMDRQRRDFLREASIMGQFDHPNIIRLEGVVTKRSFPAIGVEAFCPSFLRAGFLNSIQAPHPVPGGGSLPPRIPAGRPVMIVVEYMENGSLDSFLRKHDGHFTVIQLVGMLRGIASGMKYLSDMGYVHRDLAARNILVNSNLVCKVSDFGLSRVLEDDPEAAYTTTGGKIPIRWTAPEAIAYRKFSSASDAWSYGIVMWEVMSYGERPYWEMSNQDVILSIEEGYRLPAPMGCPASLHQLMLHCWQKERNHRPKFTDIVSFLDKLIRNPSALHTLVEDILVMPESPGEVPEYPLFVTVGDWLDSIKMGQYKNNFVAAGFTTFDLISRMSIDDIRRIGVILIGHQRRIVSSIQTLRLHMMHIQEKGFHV

[5] = target: Cyclin-dependent kinase 7 (Homo sapiens, UniProt P50613); experiment: Selectivity interaction (ActivX KiNativ screen (kinase selectivity in THP-1 cell lysates)) EUB0000639a CDK7; format: subcellular; conditions: lysate, at 0.04 µM
[6] = target: N6-adenosine-methyltransferase catalytic subunit (Homo sapiens) (UniProt Q86U44); experiment: Selectivity interaction (Transferase panel (protein, RNA, and DNA methyltransferases. and EP300 (acetyltransferase))) EUB0000270b METTL3
[7] = target: Serine/threonine-protein kinase NIM1 (Homo sapiens, UniProt Q8IY84)
[8] = target: Microtubule-associated serine/threonine-protein kinase 1 (Homo sapiens) (UniProt Q9Y2H9); experiment: Selectivity interaction (KinomeScan (DiscoverX)) EUB0000045b MAST1
[9] = target: T2, Serine/threonine-protein kinase D3 (Homo sapiens) (UniProt O94806); experiment: Selectivity interaction (KinomeScan (DiscoverX)) EUB0001619a PRKD3; conditions: at 1 µM
T2 sequence (whole entry): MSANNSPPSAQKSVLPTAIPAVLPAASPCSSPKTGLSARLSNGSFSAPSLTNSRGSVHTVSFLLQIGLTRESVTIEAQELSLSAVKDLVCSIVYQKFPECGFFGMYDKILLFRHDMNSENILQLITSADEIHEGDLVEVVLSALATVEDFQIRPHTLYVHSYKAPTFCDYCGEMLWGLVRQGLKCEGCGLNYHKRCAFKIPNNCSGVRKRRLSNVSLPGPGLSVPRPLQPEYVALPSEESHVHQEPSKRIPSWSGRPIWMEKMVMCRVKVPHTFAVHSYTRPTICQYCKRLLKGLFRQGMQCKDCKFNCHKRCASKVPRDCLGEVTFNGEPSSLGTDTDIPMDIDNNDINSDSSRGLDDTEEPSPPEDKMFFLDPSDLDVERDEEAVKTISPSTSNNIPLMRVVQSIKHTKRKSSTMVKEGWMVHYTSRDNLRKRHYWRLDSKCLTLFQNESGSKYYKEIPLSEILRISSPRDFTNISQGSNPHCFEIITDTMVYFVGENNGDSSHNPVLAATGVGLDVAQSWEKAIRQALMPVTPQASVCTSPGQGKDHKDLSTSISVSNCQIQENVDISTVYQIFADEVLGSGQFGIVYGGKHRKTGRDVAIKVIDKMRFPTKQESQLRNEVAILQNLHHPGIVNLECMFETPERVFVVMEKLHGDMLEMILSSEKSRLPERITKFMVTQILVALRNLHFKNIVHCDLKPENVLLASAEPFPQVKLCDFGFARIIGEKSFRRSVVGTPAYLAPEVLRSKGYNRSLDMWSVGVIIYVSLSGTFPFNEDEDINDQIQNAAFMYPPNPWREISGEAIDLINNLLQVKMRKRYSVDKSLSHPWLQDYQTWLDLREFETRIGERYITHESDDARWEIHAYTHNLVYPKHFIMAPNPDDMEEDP

Chain of N6-adenosine-methyltransferase catalytic subunit (Homo sapiens) (Q86U44 whole entry): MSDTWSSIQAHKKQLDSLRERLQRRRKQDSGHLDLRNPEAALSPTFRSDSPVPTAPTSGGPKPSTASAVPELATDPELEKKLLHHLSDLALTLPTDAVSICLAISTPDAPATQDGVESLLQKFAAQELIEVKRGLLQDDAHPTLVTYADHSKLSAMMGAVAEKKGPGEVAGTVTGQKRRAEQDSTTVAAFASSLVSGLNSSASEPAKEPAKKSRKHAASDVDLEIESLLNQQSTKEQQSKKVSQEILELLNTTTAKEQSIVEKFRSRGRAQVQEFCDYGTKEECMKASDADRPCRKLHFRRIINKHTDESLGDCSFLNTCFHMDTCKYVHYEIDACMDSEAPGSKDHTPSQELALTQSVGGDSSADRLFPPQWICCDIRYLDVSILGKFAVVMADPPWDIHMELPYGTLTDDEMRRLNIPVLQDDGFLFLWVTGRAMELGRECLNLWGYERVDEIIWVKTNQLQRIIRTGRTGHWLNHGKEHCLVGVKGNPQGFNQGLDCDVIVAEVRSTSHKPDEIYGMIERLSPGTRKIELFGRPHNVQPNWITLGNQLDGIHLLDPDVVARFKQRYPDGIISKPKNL
Chain of Microtubule-associated serine/threonine-protein kinase 1 (Homo sapiens) (Q9Y2H9 whole entry, looked up): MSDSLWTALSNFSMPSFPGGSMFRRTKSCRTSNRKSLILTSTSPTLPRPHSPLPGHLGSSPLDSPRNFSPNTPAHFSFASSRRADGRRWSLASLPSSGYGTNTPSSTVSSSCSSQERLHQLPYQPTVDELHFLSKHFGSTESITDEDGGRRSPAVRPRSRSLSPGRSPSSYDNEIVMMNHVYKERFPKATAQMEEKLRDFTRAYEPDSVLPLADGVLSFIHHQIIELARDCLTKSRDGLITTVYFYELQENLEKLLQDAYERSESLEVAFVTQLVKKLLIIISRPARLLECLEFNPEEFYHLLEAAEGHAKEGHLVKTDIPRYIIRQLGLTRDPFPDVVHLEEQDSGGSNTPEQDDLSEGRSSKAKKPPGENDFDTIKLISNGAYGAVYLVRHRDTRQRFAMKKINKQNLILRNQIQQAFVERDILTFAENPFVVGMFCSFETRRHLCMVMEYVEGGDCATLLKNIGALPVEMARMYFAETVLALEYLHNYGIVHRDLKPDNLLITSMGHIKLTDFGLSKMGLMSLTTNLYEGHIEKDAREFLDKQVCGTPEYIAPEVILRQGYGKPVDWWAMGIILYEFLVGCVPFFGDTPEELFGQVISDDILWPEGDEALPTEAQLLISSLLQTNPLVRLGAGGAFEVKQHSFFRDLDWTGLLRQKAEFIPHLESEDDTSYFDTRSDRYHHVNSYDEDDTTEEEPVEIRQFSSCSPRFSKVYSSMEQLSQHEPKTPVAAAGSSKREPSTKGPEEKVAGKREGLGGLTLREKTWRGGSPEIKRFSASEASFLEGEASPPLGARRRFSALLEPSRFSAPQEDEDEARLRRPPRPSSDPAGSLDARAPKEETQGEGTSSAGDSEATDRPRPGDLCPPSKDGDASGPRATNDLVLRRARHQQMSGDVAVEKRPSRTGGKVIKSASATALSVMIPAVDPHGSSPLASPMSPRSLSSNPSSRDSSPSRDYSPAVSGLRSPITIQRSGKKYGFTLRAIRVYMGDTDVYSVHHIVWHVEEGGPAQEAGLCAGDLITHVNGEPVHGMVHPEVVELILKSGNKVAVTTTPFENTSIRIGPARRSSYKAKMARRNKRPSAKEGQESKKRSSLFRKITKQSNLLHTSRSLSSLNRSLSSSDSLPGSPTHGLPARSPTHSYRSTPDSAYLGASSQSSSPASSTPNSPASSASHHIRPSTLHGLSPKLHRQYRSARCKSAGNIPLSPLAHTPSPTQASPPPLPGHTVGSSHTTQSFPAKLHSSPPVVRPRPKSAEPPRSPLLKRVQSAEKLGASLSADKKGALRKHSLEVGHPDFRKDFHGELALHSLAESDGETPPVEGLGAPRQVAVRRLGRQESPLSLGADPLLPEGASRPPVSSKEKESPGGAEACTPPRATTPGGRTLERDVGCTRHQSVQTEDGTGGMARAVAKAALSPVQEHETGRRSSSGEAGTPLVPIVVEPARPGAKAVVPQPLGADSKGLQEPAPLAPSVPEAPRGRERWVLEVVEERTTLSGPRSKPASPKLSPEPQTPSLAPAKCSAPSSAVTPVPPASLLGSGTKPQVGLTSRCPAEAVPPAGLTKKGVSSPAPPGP
Chain of MAP kinase-activated protein kinase 2 (P49137 whole entry, looked up): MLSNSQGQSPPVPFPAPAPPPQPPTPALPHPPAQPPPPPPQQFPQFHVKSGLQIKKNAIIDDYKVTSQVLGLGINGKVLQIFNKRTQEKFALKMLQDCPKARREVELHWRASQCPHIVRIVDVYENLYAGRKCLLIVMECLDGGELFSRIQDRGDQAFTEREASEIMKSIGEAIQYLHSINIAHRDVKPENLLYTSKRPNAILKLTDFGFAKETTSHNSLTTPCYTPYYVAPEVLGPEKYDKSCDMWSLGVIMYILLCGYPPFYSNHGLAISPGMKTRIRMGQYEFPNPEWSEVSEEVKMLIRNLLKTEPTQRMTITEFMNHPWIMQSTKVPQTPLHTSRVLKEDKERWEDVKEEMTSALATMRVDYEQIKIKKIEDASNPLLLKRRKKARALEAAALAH
Chain of Cyclin-dependent kinase 7 (P50613 whole entry): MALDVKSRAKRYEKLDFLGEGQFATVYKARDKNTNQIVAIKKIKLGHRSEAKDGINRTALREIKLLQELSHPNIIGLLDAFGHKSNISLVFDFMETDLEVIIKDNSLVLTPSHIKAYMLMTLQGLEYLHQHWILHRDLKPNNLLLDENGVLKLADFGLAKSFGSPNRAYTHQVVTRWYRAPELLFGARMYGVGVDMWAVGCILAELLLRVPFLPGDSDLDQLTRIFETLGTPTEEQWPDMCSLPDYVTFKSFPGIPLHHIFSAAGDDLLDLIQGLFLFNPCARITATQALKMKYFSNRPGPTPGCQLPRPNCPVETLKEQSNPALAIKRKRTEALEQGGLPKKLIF
Chain of Mitogen-activated protein kinase kinase kinase 1 (Q13233 whole entry): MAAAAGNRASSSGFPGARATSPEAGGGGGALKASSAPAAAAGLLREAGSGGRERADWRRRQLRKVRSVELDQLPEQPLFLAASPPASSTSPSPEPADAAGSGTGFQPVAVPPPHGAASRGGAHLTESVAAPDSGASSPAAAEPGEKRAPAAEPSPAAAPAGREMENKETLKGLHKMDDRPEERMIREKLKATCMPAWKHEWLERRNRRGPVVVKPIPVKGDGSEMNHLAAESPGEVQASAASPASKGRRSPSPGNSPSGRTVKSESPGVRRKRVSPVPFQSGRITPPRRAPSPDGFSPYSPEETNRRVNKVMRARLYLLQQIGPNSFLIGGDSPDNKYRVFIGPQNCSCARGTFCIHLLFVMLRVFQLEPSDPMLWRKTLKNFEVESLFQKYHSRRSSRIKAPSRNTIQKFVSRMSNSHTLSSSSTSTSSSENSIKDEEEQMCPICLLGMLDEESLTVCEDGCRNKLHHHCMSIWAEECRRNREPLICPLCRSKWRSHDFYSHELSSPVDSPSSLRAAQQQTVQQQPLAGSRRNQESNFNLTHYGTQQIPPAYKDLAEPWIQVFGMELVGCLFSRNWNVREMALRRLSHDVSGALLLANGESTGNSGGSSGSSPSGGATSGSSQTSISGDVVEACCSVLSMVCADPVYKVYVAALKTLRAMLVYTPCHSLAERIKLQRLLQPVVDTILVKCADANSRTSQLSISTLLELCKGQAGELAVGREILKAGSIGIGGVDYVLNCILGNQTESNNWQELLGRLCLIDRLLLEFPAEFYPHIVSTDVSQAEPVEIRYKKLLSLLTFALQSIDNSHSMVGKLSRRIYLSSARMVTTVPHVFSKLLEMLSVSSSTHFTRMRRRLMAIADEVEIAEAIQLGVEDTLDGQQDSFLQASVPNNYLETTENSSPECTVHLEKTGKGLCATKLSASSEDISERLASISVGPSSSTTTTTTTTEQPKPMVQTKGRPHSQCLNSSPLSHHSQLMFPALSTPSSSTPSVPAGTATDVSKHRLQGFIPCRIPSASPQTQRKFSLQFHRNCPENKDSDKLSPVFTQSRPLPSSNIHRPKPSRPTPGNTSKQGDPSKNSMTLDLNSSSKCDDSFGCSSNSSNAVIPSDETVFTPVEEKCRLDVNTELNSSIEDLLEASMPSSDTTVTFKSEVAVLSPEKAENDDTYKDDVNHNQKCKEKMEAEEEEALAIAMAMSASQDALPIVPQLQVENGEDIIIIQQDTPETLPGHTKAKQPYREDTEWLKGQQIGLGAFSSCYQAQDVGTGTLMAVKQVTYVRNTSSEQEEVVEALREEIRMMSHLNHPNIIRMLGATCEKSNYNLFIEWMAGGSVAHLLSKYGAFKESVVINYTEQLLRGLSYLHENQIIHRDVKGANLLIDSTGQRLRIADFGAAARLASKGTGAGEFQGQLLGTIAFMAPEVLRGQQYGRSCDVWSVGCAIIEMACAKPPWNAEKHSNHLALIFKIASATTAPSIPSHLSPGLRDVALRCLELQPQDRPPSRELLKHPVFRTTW
Chain of Tyrosine-protein kinase Lyn (P07948 2-512 limits assumed): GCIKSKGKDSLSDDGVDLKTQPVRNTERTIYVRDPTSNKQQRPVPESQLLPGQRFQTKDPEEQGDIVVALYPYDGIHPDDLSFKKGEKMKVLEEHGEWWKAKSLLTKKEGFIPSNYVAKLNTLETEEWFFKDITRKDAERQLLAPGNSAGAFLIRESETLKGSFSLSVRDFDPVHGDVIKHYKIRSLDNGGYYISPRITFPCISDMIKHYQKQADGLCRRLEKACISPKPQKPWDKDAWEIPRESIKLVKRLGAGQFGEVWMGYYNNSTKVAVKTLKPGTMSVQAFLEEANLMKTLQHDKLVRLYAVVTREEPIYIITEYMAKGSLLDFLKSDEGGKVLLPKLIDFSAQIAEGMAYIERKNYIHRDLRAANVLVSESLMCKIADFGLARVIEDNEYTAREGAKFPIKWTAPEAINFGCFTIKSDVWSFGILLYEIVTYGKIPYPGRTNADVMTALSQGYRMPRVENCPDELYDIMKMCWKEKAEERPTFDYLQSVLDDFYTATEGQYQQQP

Compound: CC(=O)Nc1cccc(-n2c(=O)n(C3CC3)c(=O)c3c(Nc4ccc(I)cc4F)n(C)c(=O)c(C)c32)c1
- % of control [1]: 109%

Compound: Cc1cnc(Nc2ccc(F)cc2Cl)nc1-c1c[nH]c(C(=O)N[C@H](CO)c2cccc(Cl)c2)c1
- % of inhibition [2]: 7%

Compound: COc1cc(Nc2nc(C)cc(-c3cnn4nc(OC)ccc34)n2)cc(C(F)(F)F)c1
- % of control [3]: 86%

Compound: CN(C)C/C=C/C(=O)Nc1ccc(C(=O)N2CCCC(Nc3ncc(Cl)c(-c4c[nH]c5ccccc45)n3)C2)cc1 (stereo unspecified)
- % of control [4]: 93%

Compound: CC[C@@H]1[C@H](F)C(=O)N[C@@H]1COc1nccc2cc(C(N)=O)c(OC)cc12 [ZIMLOVISERTIB]
- % of inhibition [5]: -3.7%

Compound: Cc1cc(CN)cc(C)c1-c1ncn(C)c1-c1cncn1C
- % activity ([6]; at 1 µM): > 90%
- % activity ([6]; at 10 µM): > 80%

Compound: CCc1cccc(CC)c1NC(=O)c1nn(C)c2c1CCc1cnc(Nc3ccc(C(=O)NC4CCN(C)CC4)cc3OC(F)(F)F)nc1-2
- IC50 [7]: > 10 µM

Compound: C=CC(=O)Nc1cc(-n2c(=O)ccc3cnc4ccc(-c5ccc(NS(C)(=O)=O)cc5)cc4c32)ccc1C
- % of control ([8]; at 1 µM): 100%
- % of control ([8]; at 10 µM): 94%

Compound: N#Cc1cccc(-c2c[nH]c3ncnc(N4CCOCC4)c23)c1
- % of control [9]: 64%

Source: ChEMBL document CHEMBL5465560, “Selectivity Literature for EUbOPEN Chemogenomic Library” (2024)
